Earlier results, collected in patent publication US10576065B2, “Pharmaceutical composition containing rifaximin alpha and delta” (Sandoz AG, priority 2016, dated 2020).
Where two headings read alike, the source gives them in different places.

Tests used:
[1] = set-up: AUC: concentration or dose not given beside the values; conditions: dogs
[2] = human
[3] = film coated tablets, 400 mg (Blandizzi et al.), listed as Prior art alpha
[4] = film coated tablets, 400 mg (Blandizzi et al.)

In the case of `CO[C@H]1/C=C/O[C@@]2(C)Oc3c(C)c(O)c4c(O)c(c5c(nc6cc(C)ccn65)c4c3C2=O)NC(=O)/C(C)=C\C=C\[C@H](C)[C@H](O)[C@@H](C)[C@@H](O)[C@@H](C)[C@H](OC(C)=O)[C@@H]1C` [Epsilon, rifaximin], the AUC [1] is given as 77 ng·h/mL and the Cmax [1] is given as 6.9 ng/mL.
In the case of `CO[C@H]1/C=C/O[C@@]2(C)Oc3c(C)c(O)c4c(O)c(c5c(nc6cc(C)ccn65)c4c3C2=O)NC(=O)/C(C)=C\C=C\[C@H](C)[C@H](O)[C@@H](C)[C@@H](O)[C@@H](C)[C@H](OC(C)=O)[C@@H]1C` [Beta, rifaximin], the AUC [1] is listed as 12 ng·h/mL and the Cmax [1] is listed as 1.1 ng/mL.
For `CO[C@H]1/C=C/O[C@@]2(C)Oc3c(C)c(O)c4c(O)c(c5c(nc6cc(C)ccn65)c4c3C2=O)NC(=O)/C(C)=C\C=C\[C@H](C)[C@H](O)[C@@H](C)[C@@H](O)[C@@H](C)[C@H](OC(C)=O)[C@@H]1C` [Alpha, rifaximin], the AUC ([2]; 200 mg) is listed as 5.77 ng·h/mL, the Cmax ([2]; 200 mg) is listed as 1.59 ng/mL and the AUC ([2]; 400 mg) is listed as 13.03 ng·h/mL. For the same molecule, the Cmax ([2]; 400 mg) was 3.54 ng/mL, the AUCt [2, 3] was 13.03 ng·h/mL and the Cmax [2, 3] was 3.54 ng/mL. The AUC [1] was 17 ng·h/mL and the Cmax [1] was 2.6 ng/mL.
In the case of `CO[C@H]1/C=C/O[C@@]2(C)Oc3c(C)c(O)c4c(O)c(c5c(nc6cc(C)ccn65)c4c3C2=O)NC(=O)/C(C)=C\C=C\[C@H](C)[C@H](O)[C@@H](C)[C@@H](O)[C@@H](C)[C@H](OC(C)=O)[C@@H]1C` [Gamma, rifaximin], the AUC [1] is given as 4,894 ng/ml × h and the Cmax [1] is given as 1,085.1 ng/ml.
For `CO[C@H]1/C=C/O[C@@]2(C)Oc3c(C)c(O)c4c(O)c(c5c(nc6cc(C)ccn65)c4c3C2=O)NC(=O)/C(C)=C\C=C\[C@H](C)[C@H](O)[C@@H](C)[C@@H](O)[C@@H](C)[C@H](OC(C)=O)[C@@H]1C` [amorphous, rifaximin], the AUC ([2]; 200 mg) is given as 16.13 ng·h/mL, the Cmax ([2]; 200 mg) is given as 3.70 ng/mL and the AUC ([2]; 400 mg) is given as 68.80 ng·h/mL. The Cmax ([2]; 400 mg) was 15.01 ng/mL, the AUCt [2, 4] was 68.80 ng·h/mL and the Cmax [2, 4] was 15.01 ng/mL.
For `CO[C@H]1/C=C/O[C@@]2(C)Oc3c(C)c(O)c4c(O)c(c5c(nc6cc(C)ccn65)c4c3C2=O)NC(=O)/C(C)=C\C=C\[C@H](C)[C@H](O)[C@@H](C)[C@@H](O)[C@@H](C)[C@H](OC(C)=O)[C@@H]1C` [Delta, rifaximin], the AUC [1] is listed as 830 ng·h/mL and the Cmax [1] is listed as 308.3 ng/mL.
